Drawing on US20190071416A1, “COMPOUNDS FOR TREATMENT OF CANCER AND EPIGENETICS” (Agency For Science, Technology and Research, priority 2015, published 2019), this text covers IC50 for 25 molecules.

The target in the assay is T1, SMYD3 (Homo sapiens, UniProt Q9H7B4).
T1 sequence (Q9H7B4 1-428): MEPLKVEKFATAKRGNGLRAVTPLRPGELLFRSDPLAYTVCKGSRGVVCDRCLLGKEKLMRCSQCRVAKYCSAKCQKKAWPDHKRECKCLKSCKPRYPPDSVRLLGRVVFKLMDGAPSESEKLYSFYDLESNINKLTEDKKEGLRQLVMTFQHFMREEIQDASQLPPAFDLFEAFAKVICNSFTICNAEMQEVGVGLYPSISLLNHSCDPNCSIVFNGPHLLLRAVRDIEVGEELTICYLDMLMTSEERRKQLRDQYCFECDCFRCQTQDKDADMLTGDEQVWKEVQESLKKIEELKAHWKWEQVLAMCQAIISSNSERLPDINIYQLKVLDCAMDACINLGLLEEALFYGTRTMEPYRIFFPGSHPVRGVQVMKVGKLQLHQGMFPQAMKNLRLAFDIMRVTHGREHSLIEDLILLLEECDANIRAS
Put plainly: SMYD3 biochemical assay (MTase-Glo, MAP3K2 peptide substrate). The following applies: Table 3; MTase assay, MAP3K2 peptide substrate; read-out: IC50. The method, then: A SMYD3 enzymatic assay was developed using Promega's Methyltransferase-Glo™ reagents. In the assay, SMYD3 catalyzes the methylation of the MAP3K2 peptide substrate by transferring a methyl group from SAM to MAP3K2 peptide and further converts the SAM to SAH. The SMYD3 methyltransferase activity is measured based on the amount of SAH produced from the reaction through the use of coupling enzymes that convert the SAH to ATP. The MTase-Glo detection solution then catalyzes the formation of light from ATP.
A final concentration of 1.0 μM and 10 μM SAM and MAP3K2 peptide were added and further incubated for 30 min at room temperature before adding the MTase Glo and detection reagent. Reaction signals were detected using microplate readers on luminescent mode (Safire Tecan). The IC50 was determined by non-linear regression, using GraphPad Prism version, 5.03.

Usually IC50 stands for the point on the concentration scale where inhibition reaches its midpoint. Regarding `CCCOC(=O)N1CCN(C(=O)c2ccc3c(Cl)cc(-c4ccc5c(cnn5C)c4)nc3c2)C[C@@H]1C` [B144, Propyl (S)-4-(4-chloro-2-(1-methyl-1H-indazol-5-yl)quinoline-7-carbonyl)-2-methylpiperazine-1-carboxylate], the IC50 stood at 18 nM.

Take `CCCOC(=O)N1CCN(C(=O)c2ccc3c(Cl)c4c(nc3c2)CCC(CC(=O)OC)C4)CC1` (stereo not shown) [A034, Propyl 4-(9-chloro-7-(2-methoxy-2-oxoethyl)-5,6,7,8-tetrahydroacridine-3-carbonyl)piperazine-1-carboxylate]: the IC50 worked out at 380 nM.

As for `CCCOC(=O)N1CCN(C(=O)c2ccc3c(Cl)cc(C4(F)CC4)nc3c2)CC1` [B263, Propyl 4-(4-chloro-2-(1-fluorocyclopropyl)quinoline-7-carbonyl)piperazine-1-carboxylate], the IC50 came out at 13900 nM.

Consider `CCCOC(=O)N1CCN(C(=O)c2ccc3c(Cl)c(C)c(-c4ccc(C#N)cc4)nc3c2)CC1` [B037, Propyl 4-(4-chloro-2-(4-cyanophenyl)-3-methylquinoline-7-carbonyl)piperazine-1-carboxylate], for which the IC50 amounted to 1800 nM.

`CCCOC(=O)N1CCN(C(=O)c2ccc3c(Cl)c4c(nc3c2)CCC(CC#N)C4)CC1` (stereo not shown) [A078, Propyl 4-(9-chloro-7-(cyanomethyl)-5,6,7,8-tetrahydroacridine-3-carbonyl)piperazine-1-carboxylate]: the IC50 came out at 280 nM.

For the molecule `CCCOC(=O)N1CCN(C(=O)c2ccc3c(Cl)cc(-c4ccc(S(=O)(=O)N(C)C)cc4)nc3c2)C[C@H]1C` [B094, Propyl (R)-4-(4-chloro-2-(4-(N,N-dimethylsulfamoyl)phenyl)quinoline-7-carbonyl)-2-methylpiperazine-1-carboxylate], the half-inhibitory concentration (IC50) is 610 nM.

Turning to `CCCOC(=O)N1CCN(C(=O)c2ccc3c(Cl)c4c(nc3c2)CC(CCN(C)C)CC4)CC1` (stereo not shown) [A105, Propyl 4-(9-chloro-6-(2-(dimethylamino)ethyl)-5,6,7,8-tetrahydroacridine-3-carbonyl)piperazine-1-carboxylate], the IC50 turned out to be 90 nM.

Turning to `CCCOC(=O)N1CCN(C(=O)c2ccc3c(Cl)cc(-c4ccc5c(cnn5C)c4)nc3c2)CC1` [B123], the IC50 came to 150 nM.

As for `CCCOC(=O)N1CCN(C(=O)c2ccc3c(Cl)c4c(nc3c2)CC(c2cccnc2)CC4)CC1` (stereo not shown) [A027, Propyl 4-(9-chloro-6-(pyridin-3-yl)-5,6,7,8-tetrahydroacridine-3-carbonyl)piperazine-1-carboxylate], the IC50 turned out to be 400 nM.

`CCCOC(=O)N1CCN(C(=O)c2ccc3c(Cl)cc(-c4ccc(C(C)(C)O)cc4)nc3c2)C[C@H]1C` [B265, Propyl (R)-4-(4-chloro-2-(4-(2-hydroxypropan-2-yl)phenyl)quinoline-7-carbonyl)-2-methylpiperazine-1-carboxylate]: the IC50 was 67 nM.

As for `CCCOC(=O)N1CCN(C(=O)c2ccc3c(Cl)c4c(nc3c2)CCCC4)CC1` [A001, Propyl 4-(9-chloro-5,6,7,8-tetrahydroacridine-3-carbonyl)piperazine-1-carboxylate], the IC50 came out at 400 nM.

For `CCCOC(=O)N1CCN(C(=O)c2ccc3c(Cl)c4c(nc3c2)CC(c2ccc(C)cn2)CC4)CC1` (stereo not shown) [A130, Propyl 4-(9-chloro-6-(5-methylpyridin-2-yl)-5,6,7,8-tetrahydroacridine-3-carbonyl)piperazine-1-carboxylate], the IC50 worked out at 130 nM.

Regarding `CCCOC(=O)N1CCN(C(=O)c2ccc3c(Cl)cc(-c4ccc(O)c(F)c4)nc3c2)CC1` [B191, Propyl 4-(4-chloro-2-(3-fluoro-4-hydroxyphenyl)quinoline-7-carbonyl)piperazine-1-carboxylate], the IC50 turned out to be 140 nM.

Turning to `CCCOC(=O)N1CCN(C(=O)c2ccc3c(Cl)c4c(nc3c2)CC(CCNC(=N)N)CC4)[C@@H](C)C1` (stereo partly drawn) [A091, Propyl (3S)-4-(9-chloro-6-(2-guanidinoethyl)-5,6,7,8-tetrahydroacridine-3-carbonyl)-3-methylpiperazine-1-carboxylate], the IC50 was determined as 140 nM.

With `CCCOC(=O)N1CCN(C(=O)c2ccc3c(Cl)cc(-c4ccccc4)nc3c2)[C@@H](C)C1` [B014, Propyl (S)-4-(4-chloro-2-phenylquinoline-7-carbonyl)-3-methylpiperazine-1-carboxylate], the IC50 was 170 nM.

In the case of `CCCOC(=O)N1CCN(C(=O)c2ccc3c(Cl)cc(-c4ccc(O)c(CO)c4)nc3c2)C[C@@H]1C` [B182, Propyl (S)-4-(4-chloro-2-(4-hydroxy-3-(hydroxymethyl)phenyl)quinoline-7-carbonyl)-2-methylpiperazine-1-carboxylate], the half-inhibitory concentration (IC50) was 140 nM.

`CCCOC(=O)N1CCN(C(=O)c2ccc3c(Cl)cc(-c4cnn(C)c4)nc3c2)CC1` [B179, Propyl 4-(4-chloro-2-(1-methyl-1H-pyrazol-4-yl)quinoline-7-carbonyl)piperazine-1-carboxylate]: the IC50 worked out at 250 nM.

For `CCCOC(=O)N1CCN(C(=O)c2ccc3c(Cl)c4c(nc3c2)CC(c2ccncc2)CC4)CC1` (stereo not shown) [A058, Propyl 4-(9-chloro-6-(pyridin-4-yl)-5,6,7,8-tetrahydroacridine-3-carbonyl)piperazine-1-carboxylate], the IC50 is 190 nM.

`CCCOC(=O)N1CCN(C(=O)c2ccc3c(Cl)c4c(nc3c2)CC(c2ncccc2F)CC4)[C@@H](C)C1` (stereo partly drawn) [A100, Propyl (3S)-4-(9-chloro-6-(3-fluoropyridin-2-yl)-5,6,7,8-tetrahydroacridine-3-carbonyl)-3-methylpiperazine-1-carboxylate]: the IC50 came to 570 nM.

As for `CCCOC(=O)N1CCN(C(=O)c2ccc3c(Cl)cc(-c4cscn4)nc3c2)CC1` [B153, Propyl 4-(4-chloro-2-(thiazol-4-yl)quinoline-7-carbonyl)piperazine-1-carboxylate], the IC50 turned out to be 1130 nM.

As for `CCCOC(=O)N1CCN(C(=O)c2ccc3c(Cl)c4c(nc3c2)CCC(CC(=O)OC)C4)[C@H](C)C1` (stereo partly drawn) [A085, Propyl (3R)-4-(9-chloro-7-(2-methoxy-2-oxoethyl)-5,6,7,8-tetrahydroacridine-3-carbonyl)-3-methylpiperazine-1-carboxylate], the IC50 came to 160 nM.

Regarding `C#Cc1cccc(-c2cc(Cl)c3ccc(C(=O)N4CCN(C(=O)OCCC)[C@H](C)C4)cc3n2)c1` [B071, Propyl (R)-4-(4-chloro-2-(3-ethynylphenyl)quinoline-7-carbonyl)-2-methylpiperazine-1-carboxylate], the IC50 stood at 1300 nM.

In the case of `CCCOC(=O)N1CCN(C(=O)c2ccc3c(Cl)cc(-c4ccc5c(cnn5C)c4)nc3c2)CC1C` (stereo not shown) [B155, Propyl 4-(4-chloro-2-(1-methyl-1H-indazol-5-yl)quinoline-7-carbonyl)-2-methylpiperazine-1-carboxylate], the IC50 was 180 nM.

On to `CCCOC(=O)N1CCN(C(=O)c2ccc3c(Cl)cc(-c4ccc(-c5ccn[nH]5)cc4)nc3c2)CC1` [B135, Propyl 4-(2-(4-(1H-pyrazol-5-yl)phenyl)-4-chloroquinoline-7-carbonyl)piperazine-1-carboxylate], for which the IC50 stood at 400 nM.

As to `CCCOC(=O)N1CCN(C(=O)c2ccc3c(Cl)c4c(nc3c2)CCCC4)C(CO)C1` (stereo not shown) [A125, Propyl 4-(9-chloro-5,6,7,8-tetrahydroacridine-3-carbonyl)-3-(hydroxymethyl)piperazine-1-carboxylate], the IC50 worked out at 250 nM.
